Laboratory results from patent US20150080465A1 (priority 2013, published 2015).

Columns and labels:
[1] = tested on: patients with type 2 diabetes and overt nephropathy; conditions: in vivo; cited from earlier work
[2] = monkeys, equivalent dosages orally in gelatin capsules; cited from earlier work
[3] = tested on: monocrotaline (MCT)-induced pulmonary arterial hypertension; conditions: rat, in vivo

Compound: COc1ccccc1Oc1c(NS(=O)(=O)c2ccc(C)cn2)nc(-c2ccncc2)nc1OC [Avosentan]
- Fluid overload-related adverse events, serious and non-serious [1]: increased only within the first month of treatment

Compound: COC(=O)C12CCC(C)(C)CC1C1C(=O)C=C3C4(C)C=C(C#N)C(=O)C(C)(C)C4CCC3(C)C1(C)CC2 (stereo not drawn) [Form B]
- Bioavailability [2]: higher than that of Form A

Compound: CCCc1nn(C)c2c(=O)[nH]c(-c3cc(S(=O)(=O)N4CCN(C)CC4)ccc3OCC)nc12 [sildenafil]
- Pulmonary edema [3]: completely abrogated
